Assay results published in ChEMBL document CHEMBL3351965, “Taccalonolide microtubule stabilizers” (Bioorg Med Chem, 2014).

Columns and labels:
[1] = Half life in phosphate buffer saline; type: physicochemical; conditions: phosphate buffered saline
HeLa = experiment: Antiproliferative activity against human HeLa cells by SRB assay; type: functional, cell-based

| SMILES | half-life [1] [min] | IC50 (HeLa) [µM] |
| --- | --- | --- |
| CC(=O)O[C@@H]1[C@H]2[C@H]3[C@H]([C@H](OC(C)=O)[C@H](OC(C)=O)[C@]2(C)[C@H]2[C@H](C)[C@@H]4O[C@@]45OC(=O)[C@@](C)(O)[C@]5(C)[C@H]12)[C@]1(C)[C@H](C[C@@H]2O[C@@H]2[C@@H]1OC(C)=O)C(=O)[C@@H]3O | 540 | – |
| CC(=O)O[C@@H]1[C@H]2[C@@H]3C(=O)C(O)=C4C[C@@H]5O[C@@H]5[C@H](OC(C)=O)[C@]4(C)[C@H]3[C@H](OC(C)=O)[C@H](OC(C)=O)[C@]2(C)[C@@H]2[C@@H]1[C@]1(C)C(=C[C@H]2C)OC(=O)[C@@]1(C)O | – | 3.4 |
| CC(=O)O[C@@H]1[C@H]2[C@H]3[C@H]([C@H](OC(C)=O)[C@H](OC(C)=O)[C@]2(C)[C@@H]2[C@@H]1[C@]1(C)C(=C[C@@]2(C)OO)OC(=O)[C@@]1(C)O)[C@]1(C)[C@H](C[C@@H]2O[C@@H]2[C@@H]1OC(C)=O)C(=O)[C@@H]3O | – | > 50 |
| CC(=O)O[C@@H]1[C@H]2[C@H]3[C@H]([C@H](OC(C)=O)[C@H](OC(C)=O)[C@]2(C)[C@@H]2[C@@H]1[C@]1(C)C(=C[C@H]2C)OC(=O)[C@@]1(C)O)[C@]1(C)[C@H](C[C@@H]2O[C@@H]2[C@@H]1OC(C)=O)C(=O)C3(O)O | – | 5 |
| CC(=O)O[C@H]1[C@@H]2[C@H]([C@H](C)C=C3OC(=O)[C@@](C)(O)[C@@]32C)[C@]2(C)[C@@H]1C1=C(O)C(=O)[C@H]3C[C@@H]4O[C@@H]4[C@H](OC(C)=O)[C@]3(C)[C@H]1[C@H](OC(C)=O)[C@@H]2OC(C)=O | – | 0.73 |
